Publication PMC11915855, “The flavonoid-sensing regulator AefR is involved in modulating quorum sensing through repressing the MexEF-OprN efflux pump in Pseudomonas fluorescens” (mSystems, 2025)
Where two headings read alike, the source gives them in different places.

How the values were obtained:
AefR [1] = target: T1, AefR; test: ITC with purified His6-AefR; supported by EMSA (disrupts AefR-pmexEF-oprN interaction at […]); format: binding, Pseudomonas fluorescens
T1 construct: His6-AefR (aefR gene in a pET-28b-derived vector)

AefR [2] = target: T1, AefR; test: as above; format: binding, Pseudomonas fluorescens; remark: listed apart in the source

SMILES	Kd (AefR [1])	Kd (AefR [2])
O=C(CCc1ccc(O)cc1)c1c(O)cc(O)cc1O [phloretin]	2.79 µM	
O=c1cc(-c2ccc(O)cc2)oc2cc(O)cc(O)c12 [apigenin]		162 µM
O=c1c(O)c(-c2ccc(O)c(O)c2)oc2cc(O)cc(O)c12 [quercetin]	640 µM	
